Results published in ChEMBL document CHEMBL1136038, “Parallel solution- and solid-phase synthesis of spiropyrrolo-pyrroles as novel neurokinin receptor ligands” (Bioorg Med Chem Lett, 2002).

biological target: Substance-P receptor (Homo sapiens, UniProt P25103); experiment: Affinity for human Tachykinin receptor 1 expressed in CHO cells; assay type: cell-based
Sequence (P25103 whole entry): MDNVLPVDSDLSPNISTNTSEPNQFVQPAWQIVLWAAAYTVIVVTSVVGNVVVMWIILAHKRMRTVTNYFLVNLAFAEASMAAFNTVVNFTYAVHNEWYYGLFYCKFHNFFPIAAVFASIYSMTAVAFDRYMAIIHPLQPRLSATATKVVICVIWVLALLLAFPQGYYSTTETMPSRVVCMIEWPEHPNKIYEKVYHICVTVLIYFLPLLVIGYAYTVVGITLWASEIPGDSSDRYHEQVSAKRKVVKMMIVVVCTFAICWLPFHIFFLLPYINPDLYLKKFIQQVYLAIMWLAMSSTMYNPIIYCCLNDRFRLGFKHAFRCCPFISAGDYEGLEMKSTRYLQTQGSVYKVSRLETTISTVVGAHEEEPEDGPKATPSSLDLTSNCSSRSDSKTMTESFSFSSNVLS

| Structure (SMILES) | Ki |
| --- | --- |
| O=C1COc2ccc(S(=O)(=O)N3CCC4(CC3)C3C(=O)N(c5ccccc5)C(=O)C3CN4C(=O)c3cc(C(F)(F)F)cc(C(F)(F)F)c3)cc2N1 (configuration not stated) | 30.9 nM |
| CC(C)(C)C(=O)N1CCC2(CC1)C1C(=O)N(c3ccccc3)C(=O)C1CN2C(=O)c1cc(C(F)(F)F)cc(C(F)(F)F)c1 (configuration not stated) | 302 nM |
| O=C1C2CN(C(=O)c3sc4ccccc4c3Cl)C3(CCNCC3)C2C(=O)N1Cc1cc(C(F)(F)F)cc(C(F)(F)F)c1 (configuration not stated) | 501 nM |
| CN1C(=O)C2CN(Cc3cccs3)C3(CCN(C(=O)c4cc(C(F)(F)F)cc(C(F)(F)F)c4)CC3)C2C1=O (configuration not stated) | 513 nM |
| O=C(c1cc(C(F)(F)F)cc(C(F)(F)F)c1)N1CCC2(CC1)C1C(=O)N(c3ccccc3)C(=O)C1CN2C(=O)CN1CCOCC1 (configuration not stated) | 8.32 nM |
| CS(=O)(=O)N1CCC2(CC1)C1C(=O)N(Cc3cc(C(F)(F)F)cc(C(F)(F)F)c3)C(=O)C1CN2C(=O)c1ccc2ccccc2c1 (configuration not stated) | 263 nM |
| CN1C(=O)C2CN(S(=O)(=O)c3ccc4ccccc4c3)C3(CCN(C(=O)c4cc(C(F)(F)F)cc(C(F)(F)F)c4)CC3)C2C1=O (configuration not stated) | 38.9 nM |
| COc1ccc(OC)c(S(=O)(=O)N2CCC3(CC2)C2C(=O)N(c4ccccc4)C(=O)C2CN3C(=O)c2cc(C(F)(F)F)cc(C(F)(F)F)c2)c1 (configuration not stated) | 30.2 nM |
| Cc1noc(C)c1S(=O)(=O)N1CCC2(CC1)C1C(=O)N(c3ccccc3)C(=O)C1CN2C(=O)c1cc(C(F)(F)F)cc(C(F)(F)F)c1 (configuration not stated) | 75.9 nM |
| CS(=O)(=O)N1CC2C(=O)N(c3ccccc3)C(=O)C2C12CCN(C(=O)c1cc(C(F)(F)F)cc(C(F)(F)F)c1)CC2 (configuration not stated) | 5.13 nM |
| COc1ccccc1C(=O)N1CC2C(=O)N(C)C(=O)C2C12CCN(C(=O)c1cc(C(F)(F)F)cc(C(F)(F)F)c1)CC2 (configuration not stated) | 794 nM |
| O=C1C2CN(C(=O)COCc3ccccc3)C3(CCNCC3)C2C(=O)N1Cc1cc(C(F)(F)F)cc(C(F)(F)F)c1 (configuration not stated) | 2290 nM |
